# pKd: −log10 of the molar value. Where a SMILES comes first, the peptide text is derived from it. Bridges are numbered along the chain shown (N, C = ends). [ ]: non-standard residue; d: D form. The star is where a group is joined. hPhe(3-Cl-4-CF3) = N[C@@H](CCc1ccc(C(F)(F)F)c(Cl)c1)C(=O)O; NPrPhe(4-CF3) = CCCN[C@@H](Cc1ccc(C(F)(F)F)cc1)C(=O)O; NMeGly(cPent) = CN[C@H](C(=O)O)C1CCCC1; Pro(4,4-F2) = O=C(O)[C@@H]1CC(F)(F)CN1; Hyp = O=C(O)[C@@H]1C[C@@H](O)CN1; NMeL = CN[C@@H](CC(C)C)C(=O)O; Morpholide = C1CN(*)CCO1; Ac5c = NC1(C(=O)O)CCCC1; Aze = O=C(O)[C@@H]1CCN1; Ac4c = NC1(C(=O)O)CCC1; Sar = CNCC(=O)O
# Tests used:
# [1] = target: GDP-bound KRAS wild-type protein (Homo sapiens, UniProt P01116); assay: Binding to KRAS by surface plasmon resonance (SPR), Single Cycle Kinetics; conditions: SPR Single Cycle Kinetics, GDP-bound KRAS wild-type protein, 1:1 binding model; read-out: KRAS KD
# Sequence of GDP-bound KRAS wild-type protein (P01116 whole entry): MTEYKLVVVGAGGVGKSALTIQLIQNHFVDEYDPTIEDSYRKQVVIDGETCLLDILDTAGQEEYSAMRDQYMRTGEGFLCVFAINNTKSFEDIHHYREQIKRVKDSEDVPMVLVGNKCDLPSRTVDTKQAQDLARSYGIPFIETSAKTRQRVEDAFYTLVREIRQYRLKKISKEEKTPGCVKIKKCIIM
# [2] = target: GDP-bound NRAS wild-type protein (Homo sapiens, UniProt P01111); assay: Binding to NRAS by surface plasmon resonance (SPR), Single Cycle Kinetics; conditions: SPR, GDP-bound NRAS wild-type protein vs GDP-bound KRAS wild-type protein
# Sequence of GDP-bound NRAS wild-type protein (P01111 whole entry): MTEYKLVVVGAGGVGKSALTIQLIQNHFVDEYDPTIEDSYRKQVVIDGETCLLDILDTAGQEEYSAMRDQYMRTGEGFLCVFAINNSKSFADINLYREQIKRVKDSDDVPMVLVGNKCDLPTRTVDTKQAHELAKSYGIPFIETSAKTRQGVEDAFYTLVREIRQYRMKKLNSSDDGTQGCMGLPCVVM
# [3] = target: GDP-bound HRAS wild-type protein (Homo sapiens, UniProt P01112); assay: Binding to HRAS by surface plasmon resonance (SPR), Single Cycle Kinetics; conditions: SPR, GDP-bound HRAS wild-type protein vs GDP-bound KRAS wild-type protein
# Sequence of GDP-bound HRAS wild-type protein (P01112 whole entry): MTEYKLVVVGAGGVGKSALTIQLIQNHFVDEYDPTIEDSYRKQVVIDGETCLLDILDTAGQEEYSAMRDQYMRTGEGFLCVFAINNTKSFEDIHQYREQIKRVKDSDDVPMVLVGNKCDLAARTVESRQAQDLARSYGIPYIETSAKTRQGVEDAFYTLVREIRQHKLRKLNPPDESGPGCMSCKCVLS
Compound,pKd [1],NRAS/KRAS (ratio of KD value for NRAS to KD value for KRAS) [2],HRAS/KRAS (ratio of KD value for HRAS to KD value for KRAS) [3]
CCCN1C(=O)[C@@H]2CCN2C(=O)CN(C)C(=O)[C@H]([C@@H](C)CC)NC(=O)[C@H](CC(C)C)N(C)C(=O)C[C@@H](C(=O)N2CCOCC2)NC(=O)[C@H](C2CCCC2)N(C)C(=O)C2(CCC2)NC(=O)[C@@H]2C[C@@H](OCC)CN2C(=O)[C@H](CCc2ccc(C(F)(F)F)c(Cl)c2)NC(=O)CN(C)C(=O)[C@@H]1Cc1ccc(C(F)(F)F)cc1 [PP0354] ([NMeL]I[Sar][Aze][NPrPhe(4-CF3)][Sar][hPhe(3-Cl-4-CF3)][Hyp](Et)[Ac4c][NMeGly(cPent)]D-Morpholide; lactam N-11),9.36,C (A compound having a KD ratio of 0.1 or more and less than 3 is denoted as C),B (a compound having 3 or more and less than 10 is denoted as B)
CCCN1C(=O)CN(C)C(=O)CN(C)C(=O)[C@H]([C@@H](C)CC)NC(=O)[C@H](CC(C)C)N(C)C(=O)C[C@@H](C(=O)N(C)C)NC(=O)[C@H](C2CCCC2)N(C)C(=O)C2(CCCC2)NC(=O)[C@@H]2CCCN2C(=O)[C@H](CCc2ccc(C(F)(F)F)c(Cl)c2)NC(=O)CN(C)C(=O)[C@@H]1Cc1ccc(C(F)(F)F)cc1 [PP0355] ([NMeL]I[Sar][Sar][NPrPhe(4-CF3)][Sar][hPhe(3-Cl-4-CF3)]P[Ac5c][NMeGly(cPent)]D-NMe2; lactam N-11),9.48,B (a compound having 3 or more and less than 10 is denoted as B),B (a compound having 3 or more and less than 10 is denoted as B)
CCCN1C(=O)CN(C)C(=O)CN(C)C(=O)[C@H]([C@@H](C)CC)NC(=O)[C@H](CC(C)C)N(C)C(=O)C[C@@H](C(=O)N(C)C)NC(=O)[C@H](C2CCCC2)N(C)C(=O)C2(CCC2)NC(=O)[C@@H]2CCCN2C(=O)[C@H](CCc2ccc(C(F)(F)F)c(Cl)c2)NC(=O)CN(C)C(=O)[C@@H]1Cc1ccc(C(F)(F)F)cc1 [PP0356] ([NMeL]I[Sar][Sar][NPrPhe(4-CF3)][Sar][hPhe(3-Cl-4-CF3)]P[Ac4c][NMeGly(cPent)]D-NMe2; lactam N-11),9.31,B (a compound having 3 or more and less than 10 is denoted as B),B (a compound having 3 or more and less than 10 is denoted as B)
"CCCN1C(=O)CN(C)C(=O)CN(C)C(=O)[C@H]([C@@H](C)CC)NC(=O)[C@H](CC(C)C)N(C)C(=O)C[C@@H](C(=O)N(C)C)NC(=O)[C@H](C2CCCC2)N(C)C(=O)C2(CCCC2)NC(=O)[C@@H]2CC(F)(F)CN2C(=O)[C@H](CCc2ccc(C(F)(F)F)c(Cl)c2)NC(=O)CN(C)C(=O)[C@@H]1Cc1ccc(C(F)(F)F)cc1 [PP0357] ([NMeL]I[Sar][Sar][NPrPhe(4-CF3)][Sar][hPhe(3-Cl-4-CF3)][Pro(4,4-F2)][Ac5c][NMeGly(cPent)]D-NMe2; lactam N-11)",9.40,B (a compound having 3 or more and less than 10 is denoted as B),B (a compound having 3 or more and less than 10 is denoted as B)
"CCCN1C(=O)CN(C)C(=O)CN(C)C(=O)[C@H]([C@@H](C)CC)NC(=O)[C@H](CC(C)C)N(C)C(=O)C[C@@H](C(=O)N(C)C)NC(=O)[C@H](C2CCCC2)N(C)C(=O)C2(CCC2)NC(=O)[C@@H]2CC(F)(F)CN2C(=O)[C@H](CCc2ccc(C(F)(F)F)c(Cl)c2)NC(=O)CN(C)C(=O)[C@@H]1Cc1ccc(C(F)(F)F)cc1 [PP0358] ([NMeL]I[Sar][Sar][NPrPhe(4-CF3)][Sar][hPhe(3-Cl-4-CF3)][Pro(4,4-F2)][Ac4c][NMeGly(cPent)]D-NMe2; lactam N-11)",9.48,B (a compound having 3 or more and less than 10 is denoted as B),C (A compound having a KD ratio of 0.1 or more and less than 3 is denoted as C)
CCCN1C(=O)CN(C)C(=O)CN(C)C(=O)[C@H]([C@@H](C)CC)NC(=O)[C@H](CC(C)C)N(C)C(=O)C[C@@H](C(=O)N(C)C)NC(=O)[C@H](C2CCCC2)N(C)C(=O)C2(CCCC2)NC(=O)[C@@H]2C[C@@H](OCC)CN2C(=O)[C@H](CCc2ccc(C(F)(F)F)c(Cl)c2)NC(=O)CN(C)C(=O)[C@@H]1Cc1ccc(C(F)(F)F)cc1 [PP0359] ([NMeL]I[Sar][Sar][NPrPhe(4-CF3)][Sar][hPhe(3-Cl-4-CF3)][Hyp](Et)[Ac5c][NMeGly(cPent)]D-NMe2; lactam N-11),9.85,B (a compound having 3 or more and less than 10 is denoted as B),B (a compound having 3 or more and less than 10 is denoted as B)
CCCN1C(=O)CN(C)C(=O)CN(C)C(=O)[C@H]([C@@H](C)CC)NC(=O)[C@H](CC(C)C)N(C)C(=O)C[C@@H](C(=O)N(C)C)NC(=O)[C@H](C2CCCC2)N(C)C(=O)C2(CCC2)NC(=O)[C@@H]2C[C@@H](OCC)CN2C(=O)[C@H](CCc2ccc(C(F)(F)F)c(Cl)c2)NC(=O)CN(C)C(=O)[C@@H]1Cc1ccc(C(F)(F)F)cc1 [PP0360] ([NMeL]I[Sar][Sar][NPrPhe(4-CF3)][Sar][hPhe(3-Cl-4-CF3)][Hyp](Et)[Ac4c][NMeGly(cPent)]D-NMe2; lactam N-11),9.60,B (a compound having 3 or more and less than 10 is denoted as B),C (A compound having a KD ratio of 0.1 or more and less than 3 is denoted as C)
CCCN1C(=O)CN(C)C(=O)CNC(=O)[C@H]([C@@H](C)CC)NC(=O)[C@H](CC(C)C)N(C)C(=O)C[C@@H](C(=O)N(C)C)NC(=O)[C@H](C2CCCC2)N(C)C(=O)C2(CCCC2)NC(=O)[C@@H]2CCCN2C(=O)[C@H](CCc2ccc(C(F)(F)F)c(Cl)c2)NC(=O)CN(C)C(=O)[C@@H]1Cc1ccc(C(F)(F)F)cc1 [PP0361] ([NMeL]IG[Sar][NPrPhe(4-CF3)][Sar][hPhe(3-Cl-4-CF3)]P[Ac5c][NMeGly(cPent)]D-NMe2; lactam N-11),9.14,B (a compound having 3 or more and less than 10 is denoted as B),C (A compound having a KD ratio of 0.1 or more and less than 3 is denoted as C)
CCCN1C(=O)CN(C)C(=O)CNC(=O)[C@H]([C@@H](C)CC)NC(=O)[C@H](CC(C)C)N(C)C(=O)C[C@@H](C(=O)N(C)C)NC(=O)[C@H](C2CCCC2)N(C)C(=O)C2(CCC2)NC(=O)[C@@H]2CCCN2C(=O)[C@H](CCc2ccc(C(F)(F)F)c(Cl)c2)NC(=O)CN(C)C(=O)[C@@H]1Cc1ccc(C(F)(F)F)cc1 [PP0362] ([NMeL]IG[Sar][NPrPhe(4-CF3)][Sar][hPhe(3-Cl-4-CF3)]P[Ac4c][NMeGly(cPent)]D-NMe2; lactam N-11),9.00,B (a compound having 3 or more and less than 10 is denoted as B),B (a compound having 3 or more and less than 10 is denoted as B)
"CCCN1C(=O)CN(C)C(=O)CNC(=O)[C@H]([C@@H](C)CC)NC(=O)[C@H](CC(C)C)N(C)C(=O)C[C@@H](C(=O)N(C)C)NC(=O)[C@H](C2CCCC2)N(C)C(=O)C2(CCCC2)NC(=O)[C@@H]2CC(F)(F)CN2C(=O)[C@H](CCc2ccc(C(F)(F)F)c(Cl)c2)NC(=O)CN(C)C(=O)[C@@H]1Cc1ccc(C(F)(F)F)cc1 [PP0363] ([NMeL]IG[Sar][NPrPhe(4-CF3)][Sar][hPhe(3-Cl-4-CF3)][Pro(4,4-F2)][Ac5c][NMeGly(cPent)]D-NMe2; lactam N-11)",9.00,B (a compound having 3 or more and less than 10 is denoted as B),C (A compound having a KD ratio of 0.1 or more and less than 3 is denoted as C)
"CCCN1C(=O)CN(C)C(=O)CNC(=O)[C@H]([C@@H](C)CC)NC(=O)[C@H](CC(C)C)N(C)C(=O)C[C@@H](C(=O)N(C)C)NC(=O)[C@H](C2CCCC2)N(C)C(=O)C2(CCC2)NC(=O)[C@@H]2CC(F)(F)CN2C(=O)[C@H](CCc2ccc(C(F)(F)F)c(Cl)c2)NC(=O)CN(C)C(=O)[C@@H]1Cc1ccc(C(F)(F)F)cc1 [PP0364] ([NMeL]IG[Sar][NPrPhe(4-CF3)][Sar][hPhe(3-Cl-4-CF3)][Pro(4,4-F2)][Ac4c][NMeGly(cPent)]D-NMe2; lactam N-11)",9.11,B (a compound having 3 or more and less than 10 is denoted as B),B (a compound having 3 or more and less than 10 is denoted as B)
CCCN1C(=O)CN(C)C(=O)CNC(=O)[C@H]([C@@H](C)CC)NC(=O)[C@H](CC(C)C)N(C)C(=O)C[C@@H](C(=O)N(C)C)NC(=O)[C@H](C2CCCC2)N(C)C(=O)C2(CCCC2)NC(=O)[C@@H]2C[C@@H](OCC)CN2C(=O)[C@H](CCc2ccc(C(F)(F)F)c(Cl)c2)NC(=O)CN(C)C(=O)[C@@H]1Cc1ccc(C(F)(F)F)cc1 [PP0365] ([NMeL]IG[Sar][NPrPhe(4-CF3)][Sar][hPhe(3-Cl-4-CF3)][Hyp](Et)[Ac5c][NMeGly(cPent)]D-NMe2; lactam N-11),9.54,B (a compound having 3 or more and less than 10 is denoted as B),B (a compound having 3 or more and less than 10 is denoted as B)
CCCN1C(=O)CN(C)C(=O)CNC(=O)[C@H]([C@@H](C)CC)NC(=O)[C@H](CC(C)C)N(C)C(=O)C[C@@H](C(=O)N(C)C)NC(=O)[C@H](C2CCCC2)N(C)C(=O)C2(CCC2)NC(=O)[C@@H]2C[C@@H](OCC)CN2C(=O)[C@H](CCc2ccc(C(F)(F)F)c(Cl)c2)NC(=O)CN(C)C(=O)[C@@H]1Cc1ccc(C(F)(F)F)cc1 [PP0366] ([NMeL]IG[Sar][NPrPhe(4-CF3)][Sar][hPhe(3-Cl-4-CF3)][Hyp](Et)[Ac4c][NMeGly(cPent)]D-NMe2; lactam N-11),9.42,B (a compound having 3 or more and less than 10 is denoted as B),B (a compound having 3 or more and less than 10 is denoted as B)

# Source: patent US20240158446A1, “CYCLIC COMPOUND HAVING SELECTIVE INHIBITORY ACTION ON KRAS OVER HRAS AND NRAS” (CHUGAI SEIYAKU KABUSHIKI KAISHA, priority 2021, published 2024)
